{"source": "patent US20060013858A1", "about": "“Fludrocortisone treatment for hearing loss” (priority 2002, published 2006)", "key": {"[1]": {"tested_on": "MRL/MpJ-Fas^lPr autoimmune mice", "experiment": "Blood hematocrit as index of systemic autoimmune disease", "assay_type": "in vivo, mouse", "settings": "for change in hematocrit: pre- vs posttreatment, any dose", "excerpt": "(§1) This example describes methods used to measure the severity of systemic autoimmune disease, as described in Trune et al. (Hear. Res. 38:57-66, 1989). Briefly, baseline and posttreatment serum samples are taken for measurement of hematocrit, antinuclear antibodies, and serum immune complexes as indices of systemic autoimmune disease progression. […] For those mice still alive at the time of sacrifice, some spleens were weighed to assess splenomegaly, another index of systemic autoimmune disease progression.\n(§2) It may not be possible to perform an extensive statistical analysis on serum measures if there are high mortality rates, if the differential mortality rates between groups lead to large differences in sample sizes, and an inability to get sufficient blood from some mice. In this case, pretreatment-posttreatment statistical comparisons (paired t-tests) are conducted only for those mice that survive the treatment period."}, "[2]": {"tested_on": "MRL/MpJ-Fas^lPr autoimmune mice", "experiment": "Serum immune complexes as index of systemic autoimmune disease", "assay_type": "in vivo, mouse", "settings": "for effect on serum immune complexes: pre- vs posttreatment", "excerpt": "as §1, §2"}, "[3]": {"tested_on": "MRL/MpJ-Fas^lPr autoimmune mice", "experiment": "Anti-nuclear antibody (ANA) levels by immunofluorescence", "assay_type": "in vivo, mouse", "settings": "pre- vs posttreatment", "excerpt": "as §1\nAntibodies against nuclear material are another manifestation of autoimmune disease. Anti-nuclear antibody (ANA) levels are determined by level of immunofluorescence (1+ to 4+) with normal as 1+as previously described (Trune et al., Hear. Res. 38:57-66, 1989)."}, "[4]": {"tested_on": "MRL/MpJ-Fas^lPr autoimmune mice", "experiment": "Spleen weight (splenomegaly)", "assay_type": "in vivo, mouse", "settings": "at sacrifice; prednisolone 5 mg treatment; aldosterone dose not stated", "excerpt": "as §1\nIncreased spleen size also is a manifestation of autoimmune disease, increasing with progression of systemic T and B cell proliferation. The spleen is approximately 75-100 mg in normal mice."}, "[5]": {"tested_on": "MRL/MpJ-Fas^lPr autoimmune mice", "experiment": "Cochlear histology of the stria vascularis", "assay_type": "in vivo, mouse", "settings": "for stria vascularis appearance: after steroid treatment, qualitative", "experimental": "Following decalcification in EDTA, the ears were cryostat sectioned for qualitative morphologic evaluations of the stria vascularis. The procedure of Whitlon et al. (Brain Res. Protocols, 6:159-66, 2001) can be used to improve OCT compound infiltration and tissue preservation. The cochleas were cryostat sectioned for immunocytochemical analyses. Quantitative morphology was performed on glycol methacrylate (GMA) embedded tissue as follows. […] Following decalcification in EDTA, the ears were embedded in glycol methacrylate for light microscopic examination. Every fourth section (5 μm thickness) wass serially mounted on glass slides and stained for quantitative and qualitative analyses. Cochleas were scanned for pathological changes and treatment effects. Of particular interest is the stria vascularis, lateral wall, hair cells, spiral ganglion neurons, and all blood vessels in modiolar and sensory regions. The area occupied by stria vascularis, blood vessels, non-blood vessels, and intercellular edema was measured for statistical analysis. Alternatively, the following methods can be used to qualitatively determine stria vascularis and spiral ligament and integrity of endothelial cell tight junctions, intercellular edema. […] Thin sections are observed on a Philips CM100. Qualitative observations are made of the cochlear tissue areas above and any other regions determined in the immunohistochemistry section to be responsive to steroid therapy. Stria vascularis is examined for integrity of endothelial cell tight junctions, and intercellular edema, to determine the treatment effects on known changes that occur in autoimmune disease."}, "[6]": {"tested_on": "MRL/MpJ-Fas^lPr autoimmune mice", "experiment": "Drug combination therapy: survival", "assay_type": "in vivo, mouse", "settings": "for % alive: 2 months"}, "[7]": {"tested_on": "MRL/MpJ-Fas^lPr autoimmune mice", "settings": "spironolactone study", "quoted_text": "(§5) The spironolactone treatment group was given daily oral doses (5 mg/kg per day) of spironolactone (Sigma, St. Louis, Mo.). Spironolactone drinking water was prepared by dissolving 15 mg of spironolactone in 0.6-0.8 ml of 100% ethyl alcohol (ETOH) and diluting it into a 500 ml drinking-water bottle. Mice drink 3-5 ml of water daily, so the effective dose was approximately 0.15 mg per day. The final ETOH concentration was approximately 0.1% and considered negligible. The dose of spironolactone administered (5 mg/kg per day) was equivalent to the dose used clinically for the treatment of primary hyperaldosteronism and was likely insufficient to completely block the mineralocorticoid receptor."}, "[8]": {"tested_on": "MRL/MpJ-Fas^lPr autoimmune mice", "experiment": "Survival and tolerance of steroid drinking water", "settings": "for tolerance of steroid in the drinking water: dehydration, avoidance of drinking", "text": "(§6) Serum samples were collected for baseline levels of hematocrit, serum immune complexes, and antinuclear antibodies, all hallmarks of systemic autoimmune disease. […] At the end of treatments, ABR audiometry and serum collection were repeated at 2, 3, and 4 months of treatment to determine steroid effects on cochlear function and systemic autoimmunity.\n(§7) Oral delivery in mice provides a constant source of steroid, parallels oral administration in humans, and avoids the trauma of daily injections.\n(§8) Mice receiving aldosterone were administered a daily oral dose of 3, 5, 15, or 30 μLg/kg/day of d-aldosterone (Sigma, St. Louis Mo.). Aldosterone drinking water was prepared by dissolving 50 μg of steroid in 50 μl of 100% ETOH, then diluting the required amount in the 500 ml of water in the drinking bottle to reach the final effective dose. The highest final ETOH concentration in a waterbottle was 0.018% (90 μl dose) and was considered negligible.\n(§9) Mice receiving fludrocortisone were administered a daily oral dose of 3 μg/kg per day or 10 μg/kg per day. Fludrocortisone drinking water was prepared by dissolving 50 μg of fludrocortisone, 50 μl of 100% ETOH, then diluting the required amount in the 500 ml of water in the drinking bottle to reach the final effective dose. The final ETOH concentration in a water bottle was considered negligible.\n(§10) The shift in thresholds between baseline and posttreatment times was analyzed for each ear with a paired t-test. […] A probability value less than 0.05 was considered significant in all tests. […] In addition, by summing the shifts at each frequency, any random fluctuations in thresholds at the different frequencies due to equipment or animal variation are mathematically removed."}, "[9]": {"tested_on": "MRL/MpJ-Fas^lPr autoimmune mice", "experiment": "Auditory brainstem response (ABR) audiometry after oral steroid treatment", "assay_type": "in vivo, mouse", "settings": "for % of ears that are same (unchanged) / % of ears that are worse / % of ears that are better: two months following treatment, dose not stated; for % of ears that are same (unchanged): combined ABR thresholds +/-15 dB; for % of ears that are worse: combined ABR thresholds higher by 20 dB or more; for % of ears that are better: combined ABR thresholds lower by 20 dB or more", "excerpt": "The MRL/MpJ-Fas^lPr autoimmune mouse is an established model of autoimmune sensorineural hearing loss (Ruckenstein et al., Acta OtolaryngoL 113:160-5, 1993; Trune et al. Hear. Res. 105:57-64, 1997). These mice carry a Fas gene defect that prevents apoptosis of self-recognizing T lymphocytes, leading to T cell proliferation and polyclonal B cell activation (Watanabe-Fukunaga et al. Nature 356:314-7, 1992). Spontaneous systemic autoimmune disease develops in MRL/MpJ-Fas^lPr autoimmune mice, resulting in increased serum immune complexes, anti-DNA antibodies, lymphadenopathy, elevated auditory thresholds, lowered hematocrits due to anti-erythrocyte autoantibodies, splenomegaly, increased body mass and pathological changes in the stria vascularis (Id. and Ruckenstein et al. Otolaryngol. Head Neck Surg. 121:452-6, 1999; Trune et al. Hear. Res. 155:9-20, 2001).\nMice (Jackson Laboratories, Bar Harbor, Me.) were obtained at two months of age. Onset of systemic autoimmune disease occurs at 3-4 months of age and cochlear thresholds rise shortly thereafter (Trune et al., Otolaryngol. Head Neck Surg. 117:504-8, 1997). Mice were tested with auditory brainstem response (ABR) audiometry (see Example 2) at 2-3 months of age to establish pretreatment baseline auditory thresholds.\n(§3) Animals were anesthetized (kcetamine+xylazine) and the individual ears of each mouse stimulated with a closed-tube sound delivery system sealed into the ear canal. The ABR to tone-burst stimuli at 4, 8, 16, and 32 kHz was recorded and thresholds obtained for each ear. Absolute thresholds and threshold changes over the treatment period for each ear were calculated to determine if treatments impact cochlear function. For each ear, pretreatment and posttreatment thresholds at the four frequencies were compared statistically to establish any change over the treatment period.\n(§4) The shifts for each frequency within an ear were added to derive its total change in threshold as described previously (Trune et al., Hear. Res. 137:160-6, 1999; Trune et al., Hear. Res. 137:167-73, 1999). If the ear's combined posttreatment thresholds was lower by 20 dB or more, the ear was considered to be improved (average of 5 dB per frequency). The ear is considered unchanged if the combined thresholds are +/−15 dB and worse if the combined thresholds were higher by 20 dB or more."}, "[10]": {"tested_on": "MRL/MpJ-Fas^lPr autoimmune mice", "experiment": "Drug combination therapy: ABR ear outcome", "assay_type": "in vivo, mouse", "experimental": "as §3, §4\nHearing loss was monitored monthly using the method described in Example 2."}, "[11]": {"tested_on": "MRL/MpJ-Fas^lPr autoimmune mice", "experiment": "Stria blood vessel size (quantitative morphology, plastic embedding)", "assay_type": "in vivo, mouse", "settings": "Chi-squared of vessels above and below normal median", "excerpt": "To increase histological detail in order to quantitatively measure steroid responsive hearing loss (stria blood vessel sizes), plastic embedding methods were used as described herein. Age-matched BALB/c controls also were processed to provide details of non-autoimmune stria. Camera lucida drawings were made of the stria, its blood vessels, and the edematous spaces. Digitized measurements were made of these various features."}, "[12]": {"tested_on": "MRL/MpJ-Fas^lPr autoimmune mice", "settings": "mouse, in vivo", "text": "as §6, §7, §8, §9, §10"}, "[13]": {"tested_on": "MRL/MpJ-Fas^lPr autoimmune mice", "settings": "Trune et al., Laryngoscope 2000; cited from earlier work"}, "[14]": {"tested_on": "MRL/MpJ-Fas^lPr autoimmune mice", "quoted_text": "as §5\nThe spironolactone+aldosterone treatment group was given 15 μg/kg per day of aldosterone in addition to the 5 mg/kg/day of spironolactone. Aldosterone drinking water was prepared by dissolving 50 μg of aldosterone in 50 μl of 100% ETOH and diluting it in the same 500 ml drinking-water bottle as the spironolactone. The final effective dose of aldosterone was approximately 0.5 μg per day. The final ETOH concentration of aldosterone was less than 0.009%. […]\nABR thresholds were recorded before and during treatment (2, 3, and 4 months) to measure the effect of steroids on hearing decline as described above in Example 2.\nEars also were analyzed independently across all frequencies. […]"}, "[15]": {"settings": "Aldosterone 10 μg/kg/day, 2 months of treatment"}}, "note": "Values joined by “and” are separate entries in the source; they are usually repeats but may differ in a detail not shown here. Equal values may be shown once. Read-outs that look alike come from different tables or passages of the source."}
{"compound": "prednisolone sodium phosphate", "values": [{"measurement": "hematocrits", "setting": "[1]; higher dose prednisolone", "result": "elevated hematocrits beyond the normal range"}, {"measurement": "average hematocrits", "setting": "[1]; lower prednisolone dose", "result": "in the normal range"}, {"measurement": "change in hematocrit", "setting": "[1]", "result": "elevated hematocrits"}, {"measurement": "serum immune complex levels after treatment", "setting": "[2]; higher prednisolone dose, dropped from 3,920 μg/ml", "result": "approximately 450 μg/ml"}, {"measurement": "effect on serum immune complexes", "setting": "[2]", "result": "lowered serum immune complexes in a dose dependent manner"}, {"measurement": "serum immune complexes after treatment", "setting": "[2]; prednisolone 5 mg dose, reduced from 4,570 μg/ml", "result": "1,092 μg/ml"}, {"measurement": "impact on continuing elevation of ANA levels", "setting": "[3]", "result": "did not have a significant impact"}, {"measurement": "average spleen weight", "setting": "[4]", "result": 45, "unit": "mg"}, {"measurement": "stria vascularis appearance", "setting": "[5]", "result": "proper epithelium thickness, although dilated vessels still were seen"}, {"measurement": "Alive at 2 months of Tx (mice)", "setting": "[6]; Prednisolone 3 mg/kg/day", "result": 3}, {"measurement": "% alive", "setting": "[6]; Prednisolone 3 mg/kg/day", "result": 42.9, "unit": "%"}, {"measurement": "systemic immune disease (immune complexes, hematocrits, body weights)", "setting": "[7]", "result": "all of the normal immune suppression effects"}, {"measurement": "tolerance of steroid in the drinking water", "setting": "[8]", "result": "no adverse affects"}, {"measurement": "survival", "setting": "[8]; end of two months of treatment", "result": "60-65%"}]}
{"compound": "C[C@]12CCC(=O)C=C1CC[C@@H]1[C@@H]2[C@@H](O)C[C@]2(C=O)[C@@H](C(=O)CO)CC[C@@H]12", "note": "[Aldosterone, d-aldosterone]", "values": [{"measurement": "overall ABR threshold changes vs pretreatment baselines", "setting": "[9]; two month treatment period", "result": "prevent significant overall threshold changes"}, {"measurement": "% of ears that are same (unchanged)", "setting": "[9]", "result": 27, "unit": "%"}, {"measurement": "% of ears that are worse", "setting": "[9]", "result": 69, "unit": "%"}, {"measurement": "% of ears that are better", "setting": "[9]", "result": 4, "unit": "%"}, {"measurement": "thresholds / cochlear function relative to water controls", "setting": "[9]; two months of treatment, Chi-squared", "result": "significantly better thresholds than controls"}, {"measurement": "change in hematocrit", "setting": "[1]", "result": "did not cause any significant change"}, {"measurement": "posttreatment serum immune complex levels", "setting": "[2]; higher dose aldosterone, four surviving mice", "result": "53,000 μg/ml"}, {"measurement": "serum immune complex levels in individual mice", "setting": "[2]; higher dose aldosterone, two of the four surviving mice", "result": "157,000 μg/ml and 45,000 μg/ml"}, {"measurement": "effect on serum immune complexes", "setting": "[2]", "result": "did not show any significant depression"}, {"measurement": "impact on continuing elevation of ANA levels", "setting": "[3]", "result": "did not have a significant impact"}, {"measurement": "average spleen weight", "setting": "[4]", "result": 399, "unit": "mg"}, {"measurement": "stria vascularis appearance", "setting": "[5]", "result": "restored the stria to almost normal appearance"}, {"measurement": "stria appearance", "setting": "[5]; aldosterone 15 and 30 μg treatment groups", "result": "virtually normal in appearance"}, {"measurement": "stria epithelia appearance", "setting": "[5]; lowest aldosterone dose", "result": "some edema and large vessels"}, {"measurement": "# Better (ears)", "setting": "[10]; [15]", "result": 0}, {"measurement": "# Worse (ears)", "setting": "[10]; [15]", "result": 13}, {"measurement": "# no change (ears)", "setting": "[10]; [15]", "result": 1}, {"measurement": "(%) Worse (ears)", "setting": "[10]; [15]", "result": "(93%)"}, {"measurement": "(%) no change (ears)", "setting": "[10]; [15]", "result": 7, "unit": "%"}, {"measurement": "prevention of hearing loss / decrease of rate of hearing loss", "setting": "[10]; prednisolone alone at 1 mg/kg/day, aldosterone alone at 3 μg/kg/day", "result": "not prevented"}, {"measurement": "Alive at 2 months of Tx (mice)", "setting": "[6]; Aldosterone 10 μg/kg/day", "result": 7}, {"measurement": "% alive", "setting": "[6]; Aldosterone 10 μg/kg/day", "result": 87.5, "unit": "%"}, {"measurement": "stria blood vessel size relative to normal BALB/c median (35.3 μm^2)", "setting": "[11]", "result": "the same size as normal mice"}, {"measurement": "tolerance of steroid in the drinking water", "setting": "[12]", "result": "no adverse affects"}, {"measurement": "reversing or stabilizing autoimmune related hearing loss", "setting": "[13]", "result": "just as effective as prednisolone"}]}
{"compound": "CC(=O)S[C@@H]1CC2=CC(=O)CC[C@]2(C)[C@H]2CC[C@@]3(C)[C@@H](CC[C@@]34CCC(=O)O4)[C@H]12", "note": "[Spironolactone]", "values": [{"measurement": "hearing patterns compared to water controls", "setting": "[14]; four months of treatment", "result": "no difference from controls"}, {"measurement": "hearing thresholds compared to water controls", "setting": "[14]; three months of treatment", "result": "no different from untreated mice"}, {"measurement": "systemic immune disease (immune complexes, hematocrits, body weights)", "setting": "[7]", "result": "normal progression of systemic disease"}]}
{"compound": "C[C@]12CCC(=O)C=C1CC[C@H]1[C@@H]3CC[C@](O)(C(=O)CO)[C@@]3(C)C[C@H](O)[C@@]12F", "note": "[Fludrocortisone]", "values": [{"measurement": "% of ears that are same (unchanged)", "setting": "[9]", "result": "55% and 54.5%"}, {"measurement": "% of ears that are worse", "setting": "[9]", "result": 34, "unit": "%"}, {"measurement": "% of ears that are better", "setting": "[9]", "result": "12% and 11.5%"}, {"measurement": "tolerance of steroid in the drinking water", "setting": "[8]", "result": "similarly tolerate"}]}
